Results published in patent US9765054B2, “Histone deacetylase inhibitors and compositions and methods of use thereof” (CHDI Foundation, Inc., priority 2011, dated 2017).

What was measured:
[1] = target: human catalytic domain HDAC4 protein (Homo sapiens, UniProt P56524, A743G/DEL730-739/DEL742-742); test: Inhibition of HDAC4 catalytic domain enzymatic activity, Boc-Lys(Tfa)-AMC substrate, fluorescence; conditions: Class IIa selective substrate Boc-Lys(Tfa)-AMC, read-out: Biochemical HDAC-4 IC50;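 also: trypsin releases AMC from deacetylated substrate, fluorescence tracks enzyme activity, 15 min reaction at 37 °C, 100% activity defined by DMSO-only control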
[2] = system: cellular histone deacetylase enzymatic activity in Jurkat E6-1 cells; test: Inhibition of cellular HDAC activity, Boc-Lys(Tfa)-AMC substrate, in Jurkat E6-1 cells; assay type: cell-based; conditions: Homo sapiens, Class IIa selective substrate Boc-Lys(Tfa)-AMC
Source text: The potency of Class IIa Histone Deacetylase (HDAC) inhibitors is quantified by measuring the cellular histone deacetylase enzymatic activity using the Class IIa selective substrate, Boc-Lys(Tfa)-AMC. After penetration in Jurkat E6-1 cells, the substrate is deacetylated to Boc-Lys-AMC. After cell lysis and cleavage by trypsin, the fluorophore AMC is released from the deacetylated substrate only. The fluoresence of the sample is directly related to the histone deacetylase activity in the sample.
Jurkat E6.1 Cell Culture and Plating.
Jurkat E6.1 cells are cultured according to standard cell culture protocols in Jurkat E6.1 Growth Media (RPMI without phenol red, 10% FBS, 10 mM HEPES, and 1 mM Sodium Pyruvate). Jurkat E6.1 cells are counted using a Coulter Counter and resuspended in Jurkat E6.1 growth media at a concentration of 75,000 cells/35 μl. 35 μl or 75,000 cells is seeded into Greiner microtitre assay plates. The plates are then incubated at 37° C. and 5% CO2 while other assay components are being prepared.
Serially Dilute HDAC Inhibitor Compounds.
Serial dilutions of the HDAC inhibitors and control reference compound (1-(5-(3-((4-(1,3,4-oxadiazol-2-yl)phenoxy)methyl)-1,2,4-oxadiazol-5-yl)thiophen-2-yl)-2,2,2-trifluoroethanone) are made by first resuspending the lyophilized compound to a final concentration of 10 mM in 100% DMSO. Stocks of 70 μl aliquots of the 10 mM compound in DMSO are prepared and stored at −20° C. From one stock aliquot of each compound to be tested and the reference compound, a 16-point serial dilution is prepared according to Table 7 using a 125 μl 16-channel Matrix multi-channel pipette.
2 μl (200×) of each diluted solution and each control (full activity: 100% DMSO alone or full inhibition 1 mM) is stamped into V-bottom polypropylene 384-well compound plates using either the Bravo, Janus, or […] 16-channel Matrix multi-channel pipette. Each well with the 200× compound solution is diluted 1:20 by the addition of 38 μl Jurkat assay buffer+DMSO (9.5% DMSO, RPMI without phenol red, 0.09% FBS, 9 mM Hepes, and 0.9 mM Sodium Pyruvate equilibrated to room temperature)
Prepare 5× (500 μM) Boc-Lys(Tfa)-AMC Substrate.
5× (500 μM) substrate is prepared just prior to the addition to the assay. The 5× substrate is prepared by diluting a 100 mM Boc-Lys(Tfa)-AMC in DMSO solution 1:200 by adding it drop-wise to Jurkat assay medium (RPMI without phenol red, 0.1% FBS, 10 mM Hepes, and 1 mM Sodium Pyruvate equilibrated to 37° C.) while vortexing at slow speed to prevent precipitation.
10 ml of 3× lysis buffer is prepared with 8.8 ml of 3× stock lysis buffer (50 mM Tris-HCl, pH 8.0, 137 mM NaCl, 2.7 mM KCl, 1 mM MgCl2, 1% Nonidet P40 Substitute equilibrated to room temperature) and 1.2 ml of 3 mg/ml Trypsin equilibrated to room temperature.
5 μl of each solution of 1:20 diluted compound from above is transferred to the Greiner microtitre assay plates with 75,000 cells/well using the Bravo. Cells are then incubated for 2 hours at 37° C. and 5% CO2. The assay is then started by adding 10 μl of 5× (500 μM) substrate to the assay plate using either the Bravo or 16-channel Matrix multi-channel pipette. The cells are then incubated for 3 hours at 37° C. and 5% CO2. Next, 25 μl of 3× lysis buffer is added to each well using either the 125 μl 16 channel pipette or the Bravo. The assay plate is then incubated overnight (15-16 hours) at 37° C. and 5% CO2. The following day, the plates are shaken on an orbital shaker for 1 minute at 900 rpm. Finally the top read fluorescence (Excitation: 355 nm, Emission: 460 nm) is measured using PerkinElmer EnVision.

SMILES | IC50 [1] [µM] | IC50 [2] [µM]
O=C(NO)[C@@H]1[C@H](c2ccccc2)[C@H]1c1ccc(-n2cccn2)cc1 (racemic) [Compound 65, (1R*,2R*,3R*)-2-(4-(1H-pyrazol-1-yl)phenyl)-N-hydroxy-3-phenylcyclopropanecarboxamide] | 0.09 | 0.97
O=C(NO)[C@H]1[C@H](c2cc(Cl)c3c(c2)OCCO3)[C@H]1c1ccccc1F [Compound 25f, (1S,2R,3R)-2-(8-Chloro-2,3-dihydrobenzo[b][1,4]dioxin-6-yl)-3-(2-fluorophenyl)-N-hydroxycyclopropanecarboxamide] | 0.03 | 0.24
O=C(NO)[C@H]1[C@H](c2ccnc(C3CC3)c2)[C@H]1c1ccccc1F [Compound 28c, (1S,2R,3R)-2-(2-Cyclopropylpyridin-4-yl)-3-(2-fluorophenyl)-N-hydroxycyclopropanecarboxamide] | 0.04 | 0.53
O=C(NO)[C@@H]1[C@H](c2ccc(F)cc2)[C@H]1c1ccnc(C2CC2)c1 [Compound 28d, (1R,2R,3R)-2-(2-Cyclopropylpyridin-4-yl)-3-(4-fluorophenyl)-N-hydroxycyclopropanecarboxamide] | 0.12 | 0.79
O=C(NO)[C@@H]1[C@H](c2ccccc2)[C@H]1c1ccc2c(c1)OC(F)(F)O2 [Compound 28e, (1R,2R,3R)-2-(2,2-Difluorobenzo[d][1,3]dioxol-5-yl)-N-hydroxy-3-phenylcyclopropanecarboxamide] | 0.12 | 2.03
CC(C)c1nc2ccc([C@H]3[C@H](C(=O)NO)[C@@H]3c3ccccc3)cc2o1 [Compound 39, (1R,2R,3R)—N-hydroxy-2-(2-isopropylbenzo[d]oxazol-6-yl)-3-phenylcyclopropanecarboxamide] | 0.02 | 0.22
CN1CCOc2cc(-c3ccc([C@H]4[C@H](C(=O)NO)[C@@H]4c4ccccc4)cc3)ccc21 [Compound 54c, (1R,2R,3R)—N-hydroxy-2-(4-(4-methyl-3,4-dihydro-2H-benzo[b][1,4]oxazin-7-yl)phenyl)-3-phenylcyclopropanecarboxamide] | 0.26 | 1.43
O=C(NO)[C@@H]1[C@H](c2ccccc2)[C@H]1c1cccc(N2CCCn3nccc32)c1 [Compound 56h, (1R,2R,3R)-2-(3-(6,7-Dihydropyrazolo[1,5-a]pyrimidin-4(5H)-yl)phenyl)-N-hydroxy-3-phenylcyclopropanecarboxamide] | 0.17 | 0.77
O=C(NO)[C@@H]1[C@H](c2ccccc2)[C@H]1c1ccc(C2=CCN(Cc3ccccc3)CC2)cc1 [Compound 71, (1R,2R,3R)-2-(4-(1-Benzyl-1,2,3,6-tetrahydropyridin-4-yl)phenyl)-N-hydroxy-3-phenylcyclopropanecarboxamide] | 0.35 | 0.75
Cc1ncc(-c2ccc([C@H]3[C@H](C(=O)NO)[C@@H]3c3ccccc3F)cc2)o1 [Compound 75b, (1S,2R,3R)-2-(2-Fluorophenyl)-N-hydroxy-3-(4-(2-methyloxazol-5-yl)phenyl)cyclopropanecarboxamide] | 0.05 | 0.47
Cc1ccn(-c2ccc([C@H]3[C@H](C(=O)NO)[C@@H]3c3ccccc3)cc2)n1 [Compound 79, (1R,2R,3R)—N-Hydroxy-2-(4-(3-methyl-1H-pyrazol-1-yl)phenyl)-3-phenylcyclopropanecarboxamide] | 0.09 | 0.65
CC(C)N1CCN(c2ccc([C@H]3[C@H](C(=O)NO)[C@@H]3c3ccccc3F)cn2)CC1 [Compound 83, (1S,2R,3R)-2-(2-Fluorophenyl)-N-hydroxy-3-(6-(4-isopropylpiperazin-1-yl)pyridin-3-yl)cyclopropanecarboxamide] | 0.12 | 0.75
O=C(NO)[C@@H]1[C@H](c2ccccc2)[C@H]1c1cnn(-c2ccc(C(F)(F)F)cn2)c1 [Compound 92b, (1R,2R,3R)—N-Hydroxy-2-phenyl-3-(1-(5-(trifluoromethyl)pyridin-2-yl)-1H-pyrazol-4-yl)cyclopropanecarboxamide] | 0.18 | 1.17
Cc1cnc(-c2ccc([C@H]3[C@H](C(=O)NO)[C@@H]3c3ccccc3)cc2)s1 [Compound 102, (1R,2R,3R)—N-hydroxy-2-(4-(5-methylthiazol-2-yl)phenyl)-3-phenylcyclopropanecarboxamide] | 0.04 | 0.44
O=C(NO)[C@H]1[C@H](c2ccc(NCC(F)(F)F)nc2)[C@H]1c1ccccc1F [Compound 106, (1S,2R,3R)-2-(2-Fluorophenyl)-N-hydroxy-3-(6-((2,2,2-trifluoroethyl)amino)pyridin-3-yl)cyclopropanecarboxamide] | 0.17 | 1.41

The next lines start with the values.

IC50 [1] [µM] | IC50 [2] [µM] | SMILES
0.63 | 1.85 | O=C(NO)[C@@H]1[C@H](c2ccccc2)[C@H]1c1cccc(N2CCN3CCCC3C2)c1 (relative stereo) [Compound 56f, (1R*,2R*,3R*)-2-(3-(Hexahydropyrrolo[1,2-a]pyrazin-2(1H)-yl)phenyl)-N-hydroxy-3-phenylcyclopropanecarboxamide]
0.18 | 0.69 | O=C(NO)[C@@H]1[C@H](c2ccccc2)[C@H]1c1ccc(-c2ncc(C(F)(F)F)cn2)cc1 [Compound 50e, (1R,2R,3R)-2-(4-(5-Trifluoromethylpyrimidin-2-yl)phenyl)-N-hydroxy-3-phenylcyclopropanecarboxamide]
0.99 | 8.85 | O=C(NO)[C@@H]1[C@H](c2ccccc2)[C@H]1c1ccc(-c2cccc(OCc3ccccc3)c2)cc1 [Compound 54a, (1R,2R,3R)-2-(3′-(Benzyloxy)-[1,1′-biphenyl]-4-yl)-N-hydroxy-3-phenylcyclopropanecarboxamide]
0.16 | 0.78 | Cc1cnc(-c2cccc([C@H]3[C@H](C(=O)NO)[C@@H]3c3ccccc3)c2)nc1 [Compound 77, (1R,2R,3R)—N-Hydroxy-2-(3-(5-methylpyrimidin-2-yl)phenyl)-3-phenylcyclopropanecarboxamide]
0.2 | 1.48 | O=C(NO)[C@H]1[C@H](c2cc(C3CC3)nc(C3CC3)c2)[C@H]1c1ccccc1F [Compound 88, (1S,2R,3R)-2-(2,6-Dicyclopropylpyridin-4-yl)-3-(2-fluorophenyl)-N-hydroxycyclopropanecarboxamide]
0.02 | 0.42 | O=C(NO)[C@@H]1[C@H](c2cccc(F)c2)[C@H]1c1ccnc(C2CC2)c1 [Compound 100b, (1S,2R,3R)-2-(2-Cyclopropylpyridin-4-yl)-3-(3-fluorophenyl)-N-hydroxycyclopropanecarboxamide]
0.23 | 2.5 | O=C(NO)[C@@H]1[C@H](c2ccccc2)[C@H]1c1ccn2cc(C(F)(F)F)nc2c1 [Compound 109, (1R,2R,3R)—N-Hydroxy-2-phenyl-3-(2-(trifluoromethyl)imidazo[1,2-a]pyridin-7-yl)cyclopropanecarboxamide]
0.55 | 6.66 | O=C(NO)[C@@H]1[C@H](c2ccccc2)[C@H]1c1cnc2ccccn12 [Compound 115, (1R,2R,3R)—N-hydroxy-2-(imidazo[1,2-a]pyridin-3-yl)-3-phenylcyclopropanecarboxamide]
